# Test system: HCV 1b RLuc cells (dicistronic genotype 1b Con1 replicon)
# Experiment: Renilla luciferase (RLuc)-based HCV replicon reporter assay
# Format: cell-based, HCV genotype 1b
# Settings: Hepatitis C virus, 72 h, HCV 1b RLuc replicon, 72 hours; read-out: Activity (antiviral potency [EC50])
# In short: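 HCV 1b RLuc cells carrying a dicistronic genotype 1b Con1 replicon were treated with serially diluted compounds from 10 mM DMSO stocks. After 72 h, cells were lysed and Renilla luciferase activity measured. EC50 was obtained by non-linear regression.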
row,SMILES,EC50
1,COC(=O)N[C@H](C(=O)N1CCC[C@H]1c1ncc(-c2ccc(-c3cccc4c(-c5ccc(-c6cnc([C@@H]7CCCN7C(=O)[C@@H](NC(=O)OC)C(C)C)[nH]6)cc5)cccc34)cc2)[nH]1)C(C)C,26.7 nM
2,CC[C@H](C)[C@H](NC(=O)OC)C(=O)N1C[C@@H](C#N)C[C@H]1c1ncc(-c2ccc3cc(-c4ccc(-c5cnc([C@@H]6CC7(CC7)CN6C(=O)[C@@H](NC(=O)OC)C(C)C)[nH]5)cc4)ccc3c2)[nH]1,0.01 nM
3,COC(=O)N[C@H](C(=O)N1CCC[C@H]1c1ncc(-c2ccc(-c3ccc(-c4ccc5nc([C@@H]6CCCN6C(=O)[C@@H](NC(=O)OC)C(C)C)[nH]c5c4)cc3)cc2)[nH]1)C(C)C,0.0054 nM
4,COC(=O)N[C@H](C(=O)N1CCC[C@H]1c1ncc(-c2ccc(C#Cc3ccc4nc([C@@H]5CCCN5C(=O)[C@@H](NC(=O)OC)C(C)C)[nH]c4c3)cc2)[nH]1)C(C)C,0.0111 nM
5,COC(=O)N[C@H](C(=O)N1CCC[C@H]1c1ncc(C#Cc2ccc3cc(-c4cnc([C@@H]5CCCN5C(=O)[C@@H](NC(=O)OC)C(C)C)[nH]4)ccc3c2)[nH]1)C(C)C,0.0106 nM
6,COC(=O)N[C@H](C(=O)N1CCC[C@H]1c1ncc(-c2ccc3cc(-c4ccc(-c5cnc([C@@H]6CCCN6C(=O)[C@H](NC(=O)OC)c6ccccc6)[nH]5)cc4)ccc3c2)[nH]1)C(C)C,0.0081 nM
7,COC(=O)N[C@H](C(=O)N1Cc2ccccc2C1c1ncc(-c2ccc(-c3ccc(-c4cnc([C@@H]5CCCN5C(=O)[C@@H](NC(=O)OC)C(C)C)[nH]4)cc3)cc2)[nH]1)C(C)C (stereo partly drawn),0.0414 nM
8,COC(=O)N[C@H](C(=O)N1CCC[C@H]1c1ncc(-c2ccc3c(c2)CCc2cc(-c4ccc5nc([C@@H]6CCCN6C(=O)[C@@H](NC(=O)OC)C(C)C)[nH]c5c4)ccc2-3)[nH]1)C(C)C,0.0037 nM
9,COC(=O)N[C@H](C(=O)N1CCC[C@H]1c1ncc(-c2ccc(-c3ccc(-c4cnc([C@@H]5COCCN5C(=O)[C@@H](NC(=O)OC)C(C)C)[nH]4)cc3)cc2)[nH]1)C(C)C,0.0214 nM
10,COC(=O)NC(C(=O)N1CCC[C@H]1c1ncc(-c2ccc(-c3ccc4cc(-c5cnc([C@@H]6CCCN6C(=O)C(NC(=O)OC)c6ccccc6)[nH]5)ccc4c3)cc2)[nH]1)c1ccccc1 (stereo partly drawn),0.0228 nM
11,COC(=O)N[C@H](C(=O)N1CCC[C@H]1c1ncc(-c2ccc(Oc3ccc(-c4cnc([C@@H]5CCCN5C(=O)[C@@H](NC(=O)OC)C(C)C)[nH]4)cc3)cc2)[nH]1)C(C)C,> 21.3 nM
12,COC(=O)N[C@H](C(=O)N1CCC[C@H]1c1ncc(-c2ccc3cc(-c4ccc(-c5cnc([C@@H]6CCCN6C(=O)[C@H](NC(=O)OC)c6ccc(F)cc6)[nH]5)cc4)ccc3c2)[nH]1)C(C)C,0.0142 nM
13,COC(=O)N[C@H](C(=O)N1CCC[C@H]1c1ncc(-c2ccc(C#Cc3ccc(-c4cnc([C@@H]5CCCN5C(=O)[C@@H](NC(=O)OC)C(C)C)[nH]4)cc3)cc2)[nH]1)C(C)C,0.0126 nM
14,COC(=O)NC(C(=O)N1CCC[C@H]1c1ncc(-c2cc3c(C)c4sc(-c5cnc([C@@H]6CCCN6C(=O)C(NC(=O)OC)c6ccccc6)[nH]5)cc4c(C)c3s2)[nH]1)c1ccccc1 (stereo partly drawn),0.0214 nM
15,COC(=O)N[C@H](C(=O)N1CC2(CC2)C[C@H]1c1nc(-c2ccc3cc(-c4ccc(-c5cnc([C@@H]6SCCN6C(=O)[C@@H](NC(=O)OC)C6CCOCC6)[nH]5)cc4)ccc3c2)c[nH]1)C(C)C,0.132 nM
16,COC(=O)N[C@H](C(=O)N1[C@@H]2CC[C@@H](C2)[C@H]1c1nc2ccc(-c3ccc(-c4ccc(-c5ccc6nc([C@@H]7[C@H]8CC[C@H](C8)N7C(=O)[C@@H](NC(=O)OC)C(C)C)[nH]c6c5)cc4)cc3)cc2[nH]1)C(C)C,0.283 nM
17,COC(=O)N[C@H](C(=O)N1CCC[C@H]1c1ncc(-c2ccc3c(c2)oc2cc(-c4ccc5nc([C@@H]6CCCN6C(=O)[C@@H](NC(=O)OC)C(C)C)[nH]c5c4)ccc23)[nH]1)C(C)C,0.0075 nM
18,COC(=O)N[C@@H](C)C(=O)N1[C@@H]2CC[C@@H](C2)[C@H]1c1ncc(-c2ccc(-c3ccc4cc(-c5cnc([C@@H]6CC7(CC7)CN6C(=O)[C@@H](NC(=O)OC)C(C)C)[nH]5)ccc4c3)cc2)[nH]1,0.0156 nM
19,COC(=O)N[C@H](C(=O)N1CCC[C@H]1c1ncc(-c2ccc(-c3cccc4c(-c5cnc([C@@H]6CCCN6C(=O)[C@@H](NC(=O)OC)C(C)C)[nH]5)cccc34)cc2)[nH]1)C(C)C,0.0032 nM
20,CC[C@H](NC(=O)OC)C(=O)N1[C@@H]2CC[C@@H](C2)[C@H]1c1ncc(-c2ccc(-c3ccc4cc(-c5cnc([C@@H]6CC7(CC7)CN6C(=O)[C@@H](NC(=O)OC)C(C)C)[nH]5)ccc4c3)cc2)[nH]1,0.0086 nM
21,COC(=O)N[C@H](C(=O)N1CCC[C@H]1c1ncc(-c2ccc(C#Cc3ccc(-c4cnc([C@@H]5CN(C(=O)OC)CCN5C(=O)[C@@H](NC(=O)OC)C(C)C)[nH]4)cc3)cc2)[nH]1)C(C)C,0.256 nM
22,COC(=O)NC(C(=O)N1CC2(CC2)C[C@H]1c1ncc(-c2ccc3cc(-c4ccc(-c5cnc([C@@H]6[C@H]7CC[C@H](C7)N6C(=O)[C@@H](NC(=O)OC)C(C)C)[nH]5)cc4)ccc3c2)[nH]1)c1ccccc1 (stereo partly drawn),0.0145 nM
23,COC(=O)N[C@@H](CCC#N)C(=O)N1[C@@H]2CC[C@@H](C2)[C@H]1c1nc2ccc(-c3ccc4c(c3)C(F)(F)c3cc(-c5cnc([C@@H]6CC7(CC7)CN6C(=O)[C@@H](NC(=O)OC)C(C)C)[nH]5)ccc3-4)cc2[nH]1,0.006 nM
24,COC(=O)N[C@H](C(=O)N1CCC[C@H]1c1ncc(-c2ccc3cc(-c4ccc(-c5cnc([C@@H]6CCCN6C(=O)[C@H](c6ccccc6)C(C)C)[nH]5)cc4)ccc3c2)[nH]1)C(C)C,0.0112 nM
25,COC(=O)N[C@H](C(=O)N1CCC[C@H]1c1ncc(-c2ccc3c(c2)COc2cc(-c4cnc([C@@H]5CCCN5C(=O)[C@@H](NC(=O)OC)C(C)C)[nH]4)ccc2-3)[nH]1)C(C)C,0.0131 nM
26,COC(=O)N[C@H](C(=O)N1CCC[C@H]1c1ncc(C(=O)N2CCN(c3ccc(-c4cnc([C@@H]5CCCN5C(=O)[C@@H](NC(=O)OC)C(C)C)[nH]4)cc3)CC2)[nH]1)C(C)C,> 44.4 nM
27,COC(=O)N[C@H](C(=O)N1CCC[C@H]1c1ncc(-c2ccc(C#Cc3ccc(-c4cnc([C@@H]5CN(S(=O)(=O)N(C)C)CCN5C(=O)[C@@H](NC(=O)OC)C(C)C)[nH]4)cc3)cc2)[nH]1)C(C)C,0.053 nM
28,COC(=O)N[C@H](C(=O)N1CCC[C@H]1CNC(=O)c1ccc(-c2ccc(-c3cnc([C@@H]4CCCN4C(=O)[C@@H](NC(=O)OC)C(C)C)[nH]3)cc2)cc1)C(C)C,0.0915 nM
29,COC(=O)N[C@H](C(=O)N1CC2(CC2)C[C@H]1c1ncc(-c2ccc3c(c2)oc2cc(-c4ccc5nc([C@@H]6[C@H]7CC[C@H](C7)N6C(=O)[C@@H](NC(=O)OC)C(C)C)[nH]c5c4)ccc23)[nH]1)C(C)C,0.0041 nM
30,COC(=O)N[C@H](C(=O)N1CCC[C@H]1c1ncc(C#Cc2ccc(-c3ccc4nc([C@@H]5CCCN5C(=O)[C@@H](NC(=O)OC)C(C)C)[nH]c4c3)cc2)[nH]1)C(C)C,0.0168 nM

# Source: patent US8822430B2 (Gilead Sciences, Inc., priority 2009, dated 2014)
